Laboratory results from the NIST ThermoML archive (doi:10.1016/j.fluid.2010.01.025).
Numbers after ± are expanded uncertainties.

Legend:
[1] = Crystal; DTA
[2] = Molar enthalpy of transition or fusion; conditions: Crystal; DSC

- Normal melting temperature [1]: 42.7 ± 0.4 °C
- Molar enthalpy of transition or fusion [2]: 2.71 ± 0.0837 kcal/mol
Compound: CCCC[n+]1cccc(C)c1.Cc1ccc(S(=O)(=O)[O-])cc1 [1-butyl-3-methylpyridinium 4-methylbenzenesulfonate]
